The structures appear in SMILES notation.

IC50 data for 30 compounds are collected here from patent US20240246946A1, “MODULATORS OF TREX1” (Constellation Pharmaceuticals, Inc., priority 2021, published 2024).

In one experiment the target is T1, full length human TREX1 (Homo sapiens, UniProt Q9NSU2).
T1 construct: N-terminally His-Tev tagged full length human TREX1; made in house; host or cells: E. coli
T1 sequence (Q9NSU2 1-314): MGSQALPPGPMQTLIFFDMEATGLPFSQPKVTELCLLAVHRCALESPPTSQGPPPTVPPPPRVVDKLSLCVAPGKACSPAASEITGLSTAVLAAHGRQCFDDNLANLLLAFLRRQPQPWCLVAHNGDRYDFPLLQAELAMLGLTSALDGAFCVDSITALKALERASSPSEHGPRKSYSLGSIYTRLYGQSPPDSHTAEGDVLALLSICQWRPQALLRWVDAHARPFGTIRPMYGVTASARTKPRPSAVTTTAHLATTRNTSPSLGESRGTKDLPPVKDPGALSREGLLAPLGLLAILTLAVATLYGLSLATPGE
As to the kind of experiment: hTREX1 Biochemical Assay (fluorescence, dsDNA substrate degradation). The note with it: biochemical, read-out: hTREX1 IC50. The gist of the method: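 Cleavage of 60 nM TEX615/quencher-labelled dsDNA in pH 7.4 Tris buffer with 5 mM MgCl2, 1.0% DMSO, run 18 hours at 25° C, EDTA-quenched; fluorescence read-out.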

The next experiment has as its target T2, full length mouse TREX1 (Mus musculus, UniProt Q91XB0).
T2 construct: N-terminally His-Tev tagged full length mouse TREX1; made in house; host or cells: E. coli
T2 sequence (Q91XB0 1-314): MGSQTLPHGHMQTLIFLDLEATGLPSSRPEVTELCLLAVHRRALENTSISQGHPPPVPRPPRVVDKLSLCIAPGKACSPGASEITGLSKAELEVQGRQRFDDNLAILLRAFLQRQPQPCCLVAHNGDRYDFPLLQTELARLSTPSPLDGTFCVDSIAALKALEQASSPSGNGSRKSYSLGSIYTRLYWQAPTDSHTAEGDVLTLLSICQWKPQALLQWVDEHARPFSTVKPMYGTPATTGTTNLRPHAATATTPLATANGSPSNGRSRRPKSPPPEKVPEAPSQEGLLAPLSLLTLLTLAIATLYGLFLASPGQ
As to the kind of experiment: mTREX1 Biochemical Assay (fluorescence, dsDNA substrate degradation). The note with it: biochemical, read-out: mTREX1 IC50. The gist of the method: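 Reaction run 18 h at 25° C. with 60 nM TEX615/quencher-labelled dsDNA and 6 pM mouse TREX1 in Tris buffer (pH 7.4, 5 mM MgCl2, 1.0% DMSO), enzyme having sat 4 h with compound across 10 concentrations. EDTA quench; substrate degradation measured as fluorescence increase.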

One may read the IC50 as the concentration needed to halve the response being measured. As to `CC(c1nc(C(=O)Nc2cnoc2)c(O)c(=O)n1C)C(c1cnn(C)c1)c1ccc(C(F)(F)F)cc1C#N` (single isomer, unassigned) [Example 30 D2E1], the IC50 on full length human TREX1 and at full length mouse TREX1 was above 10 nM each time.
As for `CCn1cc(C(c2cc(F)c(F)cc2Cl)C(C)c2nc(C(=O)Nc3cnoc3)c(O)c(=O)n2C)cn1` (single isomer, unassigned) [Example 72 D1E1], the IC50 was below 1 nM on full length human TREX1 and 1 to 10 nM at full length mouse TREX1.
With `COCCn1cc(C(c2ccccc2C#N)C(C)c2nc(C(=O)Nc3cnoc3)c(O)c(=O)n2C)c(C)n1` (single isomer, unassigned) [Example 71 D2E1], the IC50 at full length human TREX1 and on full length mouse TREX1 was above 10 nM in each case.
`CC(c1nc(C(=O)Nc2cnoc2)c(O)c(=O)n1C)C(c1cn(C)cn1)c1ccccc1C#N` (single isomer, unassigned) [Example 39 D2E1]: the IC50 at full length human TREX1 and at full length mouse TREX1 was above 10 nM each time.
Turning to `CC(c1nc(C(=O)Nc2cnoc2)c(O)c(=O)n1C)C(c1cnn(C)c1)c1ccc(C(F)(F)F)cc1C#N` (single isomer, unassigned) [Example 30 D2E2], the IC50 at full length human TREX1 and at full length mouse TREX1 was above 10 nM throughout.
Consider `CC(c1nc(C(=O)Nc2cnoc2)c(O)c(=O)n1C)C(c1cnn(C)c1)c1ccc(F)cc1C#N` (single isomer, unassigned) [Example 15 D1E2], for which the IC50 at full length human TREX1 and at full length mouse TREX1 was above 10 nM throughout.
`COC(C)(C)Cn1cc(C(c2ccccc2C#N)C(C)c2nc(C(=O)Nc3cnoc3)c(O)c(=O)n2C)cn1` (single isomer, unassigned) [Example 37 D2E1]: the IC50 on full length human TREX1 and at full length mouse TREX1 was above 10 nM in each case.
For `Cc1nn(C)cc1C(c1cc(F)ccc1Cl)C(C)c1nc(C(=O)Nc2cnoc2)c(O)c(=O)n1C` (single isomer, unassigned) [Example 62 D1E2], the IC50 on full length human TREX1 and at full length mouse TREX1 was above 10 nM throughout.
`COCCn1cc(C(c2cc(F)ccc2C#N)C(C)c2nc(C(=O)Nc3cnoc3)c(O)c(=O)n2C)cn1` (single isomer, unassigned) [Example 18 D2E2]: the IC50 at full length human TREX1 and at full length mouse TREX1 was above 10 nM throughout.
In the case of `CC(c1nc(C(=O)Nc2cnoc2)c(O)c(=O)n1C)C(c1ccccc1C#N)c1cn(C)nc1C#N` (single isomer, unassigned) [Example 10 D2E2], the IC50 at full length human TREX1 and on full length mouse TREX1 was above 10 nM throughout.
For `CC(c1nc(C(=O)Nc2cnoc2)c(O)c(=O)n1C)C(c1cnn(C)c1)c1ccc(C(=O)N(C)C)cc1C#N` (single isomer, unassigned) [Example 11 D2E2], the IC50 on full length human TREX1 and on full length mouse TREX1 was above 10 nM in each case.
On to `Cc1nn(C)cc1C(c1ccccc1C#N)C(c1nc(C(=O)Nc2cnoc2)c(O)c(=O)n1C)C(F)(F)F` (single isomer, unassigned) [Example 41 D1E1], for which the IC50 at full length human TREX1 and on full length mouse TREX1 was above 10 nM in each case.
On to `Cc1nn(C)cc1C(c1ccc(F)cc1C#N)C(C)c1nc(C(=O)Nc2cnoc2)c(O)c(=O)n1C` (single isomer, unassigned) [Example 56 D1E2], for which the IC50 at full length human TREX1 and on full length mouse TREX1 was above 10 nM each time.
As to `CC(c1nc(C(=O)Nc2cnoc2)c(O)c(=O)n1C)C(c1cnn(CC(F)(F)F)c1)c1ccccc1C#N` (single isomer, unassigned) [Example 22 D1E2], the half-inhibitory concentration (IC50) at full length human TREX1 and on full length mouse TREX1 was above 10 nM in each case.
Turning to `Cc1nn(C)cc1C(c1ccccc1C#N)C(C)c1nc(C(=O)Nc2cnoc2)c(O)c(=O)n1C` (single isomer, unassigned) [Example 3 D1E2], the 50% inhibitory concentration (IC50) on full length human TREX1 and at full length mouse TREX1 was above 10 nM each time.
Take `CC(c1nc(C(=O)Nc2cnoc2)c(O)c(=O)n1C)C(c1cnn(C(F)F)c1)c1ccccc1C#N` (single isomer, unassigned) [Example 38 D2E1]: the half-maximal inhibitory concentration (IC50) at full length human TREX1 and on full length mouse TREX1 was above 10 nM each time.
As to `CC(c1nc(C(=O)Nc2cnoc2)c(O)c(=O)n1C)C(c1cnn(C)c1)c1ccc(C(=O)N(C)C)cc1C#N` (single isomer, unassigned) [Example 11 D2E1], the IC50 on full length human TREX1 and at full length mouse TREX1 was above 10 nM in each case.
For `CC(c1nc(C(=O)Nc2cnoc2)c(O)c(=O)n1C)C(c1cnn(C)c1)c1ccncc1C#N` (single isomer, unassigned) [Example 8 D2E1], the IC50 on full length human TREX1 and on full length mouse TREX1 was above 10 nM in each case.
Take `CC(c1nc(C(=O)Nc2cnoc2)c(O)c(=O)n1C)C(c1cn[nH]c1)c1ccccc1C#N` (single isomer, unassigned) [Example 12 D2E2]: the IC50 on full length human TREX1 and at full length mouse TREX1 was above 10 nM throughout.
As for `COCCn1cc(C(c2cc(F)ccc2C#N)C(C)c2nc(C(=O)Nc3cnoc3)c(O)c(=O)n2C)cn1` (single isomer, unassigned) [Example 18 D1E1], the half-inhibitory concentration (IC50) on full length human TREX1 and on full length mouse TREX1 was above 10 nM each time.
On to `CC(c1nc(C(=O)Nc2cnoc2)c(O)c(=O)n1C)C(c1cocn1)c1ccccc1C#N` (single isomer, unassigned) [Example 50 D1E2], for which the IC50 at full length human TREX1 and on full length mouse TREX1 was above 10 nM throughout.
`Cc1c(C(c2ccccc2C#N)C(C)c2nc(C(=O)Nc3cnoc3)c(O)c(=O)n2C)cnn1C` (single isomer, unassigned) [Example 4 D1E2]: the concentration for half-maximal inhibition (IC50) at full length human TREX1 and on full length mouse TREX1 was above 10 nM in each case.
In the case of `CC(c1nc(C(=O)Nc2cnoc2)c(O)c(=O)n1C)C(c1cnn(C)c1)c1cc(C(F)(F)F)ccc1C#N` (single isomer, unassigned) [Example 29 D1E2], the 50% inhibitory concentration (IC50) at full length human TREX1 and on full length mouse TREX1 was above 10 nM in each case.
For `CC(c1nc(C(=O)Nc2cnoc2)c(O)c(=O)n1C)C(c1cnn(C2COC2)c1)c1ccccc1C#N` (single isomer, unassigned) [Example 106 D2E2], the 50% inhibitory concentration (IC50) on full length human TREX1 and on full length mouse TREX1 was above 10 nM in each case.
For the compound `Cc1nn(C)cc1C(c1cc(F)ccc1C#N)C(c1nc(C(=O)Nc2cnoc2)c(O)c(=O)n1C)C(F)(F)F` (single isomer, unassigned) [Example 42 D1E1], the IC50 on full length human TREX1 and on full length mouse TREX1 was above 10 nM in each case.
For the compound `CCn1cc(C(c2cc(F)c(F)cc2Cl)C(C)c2nc(C(=O)Nc3cnoc3)c(O)c(=O)n2C)cn1` (single isomer, unassigned) [Example 72 D2E1], the IC50 at full length human TREX1 and at full length mouse TREX1 was above 10 nM throughout.
On to `CCn1ncc(C(c2ccc(F)cc2C#N)C(C)c2nc(C(=O)Nc3cnoc3)c(O)c(=O)n2C)c1C` (single isomer, unassigned) [Example 65 D2E2], for which the results for the IC50 on full length human TREX1 and at full length mouse TREX1 were below 1 nM and above 10 nM, respectively.
The corresponding values for `Cc1nn(C)cc1C(c1cc(F)ccc1Cl)C(C)c1nc(C(=O)Nc2cnoc2)c(O)c(=O)n1C` (single isomer, unassigned) [Example 62 D2E1] are above 10 nM and above 10 nM.
The corresponding values for `CCn1cc(C(c2ccccc2C#N)C(C)c2nc(C(=O)Nc3cnoc3)c(O)c(=O)n2C)c(C)n1` (single isomer, unassigned) [Example 70 D2E1] are 1 to 10 nM and above 10 nM.
The corresponding values for `CC(c1nc(C(=O)Nc2cnoc2)c(O)c(=O)n1C)C(c1cnn(C)c1)c1cc(F)c(F)cc1Cl` (single isomer, unassigned) [Example 28 D2E2] are above 10 nM and above 10 nM.
